How the values were obtained:
[1] = test system: A08 (5'-FAM) (DNA, aptamer) AGCCTCGTCTGTTCTCCCGGCAGTGTGGGCGAATCTATGCGTACCGTTCGATATCGTGGGGAAGACAAGCAGACGT; test: microscale thermophoresis; settings: 137 mM NaCl, 2.7 mM KCl; 10 mM Na2HPO4, 2 mM KH2PO4, pH 7.4, 25 °C
[2] = test system: A08min (5'-FAM) (DNA, aptamer) GGCAGTGTGGGCGAATCTATGCGTACCGTTCGATATCGTG; test: microscale thermophoresis; settings: 137 mM NaCl, 2.7 mM KCl; 10 mM Na2HPO4, 2 mM KH2PO4, pH 7.4, 25 °C
[3] = test system: H8 (5'-FAM) (DNA, aptamer) GGGAGGACGAAGCGGAACTGGGTGTGGGGTGATCAAGGGAGTAGACTACAGAAGACACGCCCGACA; test: microscale thermophoresis; settings: 137 mM NaCl, 2.7 mM KCl, 1 mM MgCl2; 10 mM Na2HPO4, 2 mM KH2PO4, pH 7.4, 25 °C
[4] = test system: H12 (5'-FAM) (DNA, aptamer) GGGAGGACGAAGCGGAACCGGGTGTGGGTGCCTTGATCCAGGGAGTCTCAGAAGACACGCCCGACA; test: microscale thermophoresis; settings: 137 mM NaCl, 2.7 mM KCl, 1 mM MgCl2; 10 mM Na2HPO4, 2 mM KH2PO4, pH 7.4, 25 °C
[5] = test system: 1.12.2 (DNA, aptamer) GATCGGGTGTGGGTGGCGTAAAGGGAGCATCGGACA; test: SYBR Green I displacement; settings: 120 mM NaCl, 5 mM KCl, 10 mM CaCl2; 10 mM HEPES, pH 7.0; OTA 0.2 to 70 nM
[6] = test system: A08 (DNA, aptamer) AGCCTCGTCTGTTCTCCCGGCAGTGTGGGCGAATCTATGCGTACCGTTCGATATCGTGGGGAAGACAAGCAGACGT; test: SYBR Green I displacement; settings: 137 mM NaCl, 2.7 mM KCl; 10 mM Na2HPO4, 2 mM KH2PO4, pH 7.4; OTA 0.2 to 70 nM
[7] = test system: A08min (DNA, aptamer) GGCAGTGTGGGCGAATCTATGCGTACCGTTCGATATCGTG; test: SYBR Green I displacement; settings: 137 mM NaCl, 2.7 mM KCl; 10 mM Na2HPO4, 2 mM KH2PO4, pH 7.4; OTA 0.2 to 70 nM
[8] = test system: 1.12.2 (DNA, aptamer) GATCGGGTGTGGGTGGCGTAAAGGGAGCATCGGACA; test: gold nanoparticle aggregation; settings: 0.5 M NaCl added last; in water; OTA 0.2 to 70 nM
[9] = test system: A08 (DNA, aptamer) AGCCTCGTCTGTTCTCCCGGCAGTGTGGGCGAATCTATGCGTACCGTTCGATATCGTGGGGAAGACAAGCAGACGT; test: gold nanoparticle aggregation; settings: 0.5 M NaCl added last; in water; OTA 0.2 to 70 nM
[10] = test system: A08min (DNA, aptamer) GGCAGTGTGGGCGAATCTATGCGTACCGTTCGATATCGTG; test: gold nanoparticle aggregation; settings: 0.5 M NaCl added last; in water; OTA 0.2 to 70 nM
[11] = test system: 1.12.2 (5'-FAM) (DNA, aptamer) GATCGGGTGTGGGTGGCGTAAAGGGAGCATCGGACA; test: microscale thermophoresis (raw fluorescence, quenching); settings: 120 mM NaCl, 5 mM KCl, 10 mM CaCl2; 10 mM HEPES, pH 7.0, 25 °C; raw fluorescence quenching analysed, may have skewed KD

C[C@@H]1Cc2c(Cl)cc(C(=O)N[C@@H](Cc3ccccc3)C(=O)O)c(O)c2C(=O)O1
KD [1]: 0.2326 ± 0.0806 µM
KD [2]: 0.0965 ± 0.0333 µM
KD [3]: 0.4161 ± 0.119 µM
KD [4]: 0.6295 ± 0.0797 µM
binding [5]: yes
binding [6]: yes
binding [7]: yes
binding [8]: yes
binding [9]: yes
binding [10]: yes
KD [11]: 0.5248 ± 0.1478 µM

From PMC5127132 (2016)
